This note sets out measurements from ChEMBL document CHEMBL5465560, “Selectivity Literature for EUbOPEN Chemogenomic Library” (2024).

For test [1], the target named is T1, Activin receptor type-1 (Homo sapiens) (UniProt Q04771).
T1 sequence (whole entry): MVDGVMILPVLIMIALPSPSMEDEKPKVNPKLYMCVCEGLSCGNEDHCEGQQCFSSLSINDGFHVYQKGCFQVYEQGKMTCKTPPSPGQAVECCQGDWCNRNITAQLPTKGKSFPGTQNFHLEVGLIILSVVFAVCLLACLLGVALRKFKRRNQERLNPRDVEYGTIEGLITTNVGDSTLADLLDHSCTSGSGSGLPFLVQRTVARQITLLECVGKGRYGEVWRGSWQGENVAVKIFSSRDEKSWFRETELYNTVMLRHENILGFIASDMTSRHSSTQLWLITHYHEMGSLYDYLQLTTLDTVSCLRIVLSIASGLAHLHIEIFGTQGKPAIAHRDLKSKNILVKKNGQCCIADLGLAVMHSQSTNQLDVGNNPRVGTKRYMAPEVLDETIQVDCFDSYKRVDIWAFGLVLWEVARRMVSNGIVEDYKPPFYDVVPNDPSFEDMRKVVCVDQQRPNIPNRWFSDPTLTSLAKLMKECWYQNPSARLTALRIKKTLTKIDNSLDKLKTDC
The experiment in a line: (§1) Selectivity interaction (LanthaScreen Eu Kinase Binding Assay) EUB0001632a ACVR1. As to conditions: at 10 µM. On the technique in general: Time-resolved FRET reads energy transfer from a long-lived donor to a nearby acceptor.

Test [2] deals with Activin receptor type-1 (Homo sapiens), Q04771 [R206H]. Described as §1. As to conditions: at 10 µM.
Test [3] has as its target Cyclin-dependent kinase 6 (Homo sapiens) (UniProt Q00534). Description: Selectivity interaction (Kinase panel (KiNativ target engagement assay in Jurkat cells)) EUB0001635a CDK6. The format is cell-based. As to conditions: Selectivity number of off-targets 0.0, Selectivity number of targets 233.0, Source Knowledge https://www.sciencedirect.com/science/article/pii/S2451945619300674?via%3Dihub, at 1 µM.

Test [4] concerns the target T2, Mitogen-activated protein kinase 15 (Homo sapiens) (UniProt Q8TD08).
T2 sequence (whole entry): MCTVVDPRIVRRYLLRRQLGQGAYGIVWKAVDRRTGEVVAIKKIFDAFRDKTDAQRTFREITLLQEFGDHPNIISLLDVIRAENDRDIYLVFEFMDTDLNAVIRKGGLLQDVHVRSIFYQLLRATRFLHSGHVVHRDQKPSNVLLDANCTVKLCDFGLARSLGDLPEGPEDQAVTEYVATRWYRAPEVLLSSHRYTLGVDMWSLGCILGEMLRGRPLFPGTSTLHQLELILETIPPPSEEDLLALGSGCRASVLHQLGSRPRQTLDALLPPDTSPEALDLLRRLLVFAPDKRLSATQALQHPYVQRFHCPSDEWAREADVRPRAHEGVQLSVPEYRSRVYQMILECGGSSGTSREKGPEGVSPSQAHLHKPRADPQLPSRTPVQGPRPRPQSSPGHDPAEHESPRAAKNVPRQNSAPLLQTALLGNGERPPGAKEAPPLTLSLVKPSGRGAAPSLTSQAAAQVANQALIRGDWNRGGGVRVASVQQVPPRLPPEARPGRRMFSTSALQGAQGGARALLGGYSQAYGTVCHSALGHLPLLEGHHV
Description: Selectivity interaction (KinomeScan (DiscoverX)) EUB0000666a MAPK15. As to conditions: at 10 µM.

The target in test [5] is T3, NUAK family SNF1-like kinase 2 (Homo sapiens) (UniProt Q9H093).
T3 sequence (whole entry): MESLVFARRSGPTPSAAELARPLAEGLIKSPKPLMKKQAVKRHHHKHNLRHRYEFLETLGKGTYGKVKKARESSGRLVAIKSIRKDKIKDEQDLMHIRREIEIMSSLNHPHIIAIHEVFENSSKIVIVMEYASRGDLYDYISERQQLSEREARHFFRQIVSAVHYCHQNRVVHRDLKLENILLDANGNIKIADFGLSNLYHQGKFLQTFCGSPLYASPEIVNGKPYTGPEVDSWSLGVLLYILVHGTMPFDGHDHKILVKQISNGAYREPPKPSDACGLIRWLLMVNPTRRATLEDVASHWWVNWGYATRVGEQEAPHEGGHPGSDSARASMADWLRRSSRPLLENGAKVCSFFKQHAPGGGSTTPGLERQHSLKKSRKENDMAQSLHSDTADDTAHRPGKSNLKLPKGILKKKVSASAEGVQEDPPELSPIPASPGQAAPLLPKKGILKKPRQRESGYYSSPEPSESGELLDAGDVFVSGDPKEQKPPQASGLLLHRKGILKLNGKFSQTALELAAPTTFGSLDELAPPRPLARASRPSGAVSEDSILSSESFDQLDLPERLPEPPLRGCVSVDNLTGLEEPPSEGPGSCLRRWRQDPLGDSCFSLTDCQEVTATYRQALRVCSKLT
Description: Selectivity interaction (KinomeScan (DiscoverX)) EUB0000229b NUAK2. The following applies: at 10 µM.

Test [6] deals with T4, Serine/threonine-protein kinase 17B (Homo sapiens) (UniProt O94768).
T4 sequence (whole entry): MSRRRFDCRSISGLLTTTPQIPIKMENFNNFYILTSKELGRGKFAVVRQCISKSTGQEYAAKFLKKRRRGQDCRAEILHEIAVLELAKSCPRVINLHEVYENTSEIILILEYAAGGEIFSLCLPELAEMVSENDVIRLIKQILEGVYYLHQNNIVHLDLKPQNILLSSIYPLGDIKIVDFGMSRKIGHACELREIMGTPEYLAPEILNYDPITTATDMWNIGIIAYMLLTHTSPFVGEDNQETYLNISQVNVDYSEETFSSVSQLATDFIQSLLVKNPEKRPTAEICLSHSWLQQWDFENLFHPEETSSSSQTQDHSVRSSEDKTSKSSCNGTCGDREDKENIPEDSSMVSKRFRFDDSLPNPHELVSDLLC
Description: Selectivity interaction (KinomeScan (DiscoverX)) EUB0000655a STK17B. As to conditions: at 10 µM.

The structures appear in SMILES notation.

Sequence of Cyclin-dependent kinase 6 (Homo sapiens) (Q00534 whole entry): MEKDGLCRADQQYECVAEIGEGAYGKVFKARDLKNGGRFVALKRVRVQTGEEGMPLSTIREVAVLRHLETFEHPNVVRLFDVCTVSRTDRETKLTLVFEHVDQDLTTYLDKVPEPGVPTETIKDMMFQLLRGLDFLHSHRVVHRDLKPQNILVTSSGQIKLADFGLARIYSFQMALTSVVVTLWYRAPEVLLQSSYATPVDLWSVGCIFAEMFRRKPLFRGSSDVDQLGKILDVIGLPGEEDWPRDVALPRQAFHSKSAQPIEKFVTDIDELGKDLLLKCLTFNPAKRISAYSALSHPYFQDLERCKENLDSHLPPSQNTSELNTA
Sequence of Activin receptor type-1 (Homo sapiens), Q04771 [R206H] (Q04771 whole entry R206H): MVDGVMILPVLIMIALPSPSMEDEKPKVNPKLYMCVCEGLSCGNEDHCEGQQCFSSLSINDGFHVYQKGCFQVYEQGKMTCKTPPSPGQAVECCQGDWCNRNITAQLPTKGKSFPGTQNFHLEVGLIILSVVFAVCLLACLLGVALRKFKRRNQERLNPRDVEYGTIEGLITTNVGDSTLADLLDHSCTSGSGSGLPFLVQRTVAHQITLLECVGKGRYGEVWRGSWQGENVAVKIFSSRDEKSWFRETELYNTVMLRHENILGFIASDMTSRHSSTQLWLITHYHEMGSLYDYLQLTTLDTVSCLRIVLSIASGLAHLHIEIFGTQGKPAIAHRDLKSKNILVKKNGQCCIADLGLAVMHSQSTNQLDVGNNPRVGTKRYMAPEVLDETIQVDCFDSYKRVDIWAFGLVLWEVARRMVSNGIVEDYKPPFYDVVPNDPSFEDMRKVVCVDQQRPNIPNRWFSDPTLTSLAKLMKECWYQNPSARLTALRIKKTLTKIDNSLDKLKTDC

In the case of `Cn1cc(-n2cnc3c(NCc4nc5cc(Cl)c(Cl)cc5[nH]4)nc(N4CCOCC4)nc32)cn1`, the % of inhibition was -2.09% in test [1] and -125% in test [2].
Turning to `C=CC(=O)Nc1ccc(C(=O)Nc2[nH]nc3c2CN(C(=O)N[C@H](CN(C)C)c2ccccc2)C3(C)C)cc1`, the % of engagement in test [3] was -8.6%.
In test [4], `O=C(NOC[C@H](O)CO)c1ccc(F)c(F)c1Nc1ccc(I)cc1F` yielded a % of control of 100%.
In test [5], `COc1cc(N(C)c2ccnc3ccc(C(F)(F)F)cc23)cc(OC)c1OC` yielded a % binding of 86%.
`CN(C)CCOc1ccc(-c2nc(-c3ccncc3)c(-c3ccc4c(c3)CC/C4=N\O)[nH]2)cc1` gave a % of control in test [6] of 87%.
